According to patent US11124523B2, “2,6-dioxaspiro [4,5] decane derivatives and preparation method therefor and pharmaceutical applications thereof” (SHANDONG LUYE PHARMACEUTICAL CO., LTD., priority 2017, dated 2021):
Where a name gives a salt, the structure may show the parent alone.

Assays:
[1] = molecular target: T1, human μ-subtype opioid receptor (hMOR) (Homo sapiens (Human), UniProt P35372); assay: MOR β-arrestin-2 agonist activity test; format: cell-based; settings: for Emax: maximum effect of enkephalin DAMGO was 100%, about 0% = no actual agonist activity
Experimental: Test 2: β-Arrestin-2 Agonist Activity Test
2.1 Experimental Purpose: To test the β-arrestin-2 agonist activity of the compounds of the present disclosure on the human μ-subtype opioid receptor (hMOR).
a. All samples were dissolved in DMSO to a storage concentration of 10 mM.
(§1) b. A series of diluted samples were formulated on a 384-well LDV plate. A total of 11 concentration points were obtained by 3.162-fold gradient dilution.
c. The series of diluted samples were transferred to an experimental plate by using an Echo machine, wherein 60 nL of the compound was transferred corresponding to each well.
d. 60 nL of 3.33 mM DAMGO (as HPE) and 60 nL of DMSO (as ZPE) were transferred to the corresponding positions on the experimental plate by using the Echo machine.
The experiment was performed using PathHunter Detection Kit from DiscoveRX Cooperation (DiscoveRX #93-0213C3)
a. Assay buffer and PathHunter detection reagent required for the experiment were formulated.
Assay Buffer: 1×DPBS buffer
PathHunter Detection Reagent: The kit was provided therein with three constituents.
c. The experimental plate was centrifuged at 300 rpm for 30 s and incubated at room temperature for 2 hours.
d. 6 μL of the PathHunter detection reagent was added to each well of the experimental plate.
e. The experimental plate was centrifuged at 300 rpm for 30 seconds, then left at room temperature for 60 minutes, and then read on the Envision.

[2] = Metabolic stability in liver microsomes; format: in vitro ADME; settings: pH 7.4; human liver microsomes 0.5 mg protein/mL; 45 mg microsome protein/g liver, 20 g liver/kg; read-out: Intrinsic Clearance CLint(liver) in Human Liver
Experimental: Test 3: Metabolic Stability in Liver Microsomes
3.1 Experimental Purpose: To test the metabolic stability of the compounds of the present disclosure in human liver microsomes
a. All samples as well as testosterone, diclofenac and propafenone acting as reference substances were dissolved in DMSO to a storage concentration of 10 mM.
b. Intermediate Solution: 5 μL of the substance to be tested or the reference substance was diluted with 45 μL of DMSO (with 450 μL of 1:1 methanol/water).
c. Working Solution: the intermediate solution was diluted with 450 μL of 100 mM potassium phosphate buffer solution (pH 7.4).
Assay Buffer: 100 mM potassium phosphate buffer (pH 7.4) • 10 mM MgCl2
Liver Microsome Solution (final concentration: 0.5 mg protein/mL):
Human liver microsomes, obtained from BD, Cat No. 452117, Lot No. 38291
b. 10 μL of the working solution containing the substance to be tested or the reference substance was added to each of plates (T0, T5, T10, T20, T30, T60, NCF60).
c. The liver microsome solution was dispensed into a 96-well plate in an amount of 680 μL/well, then 80 was added, and then T was added to each of the plates. The above incubation plate was placed at 37° C. and pre-incubated for approximately 10 minutes.
d. 10 μL of 100 mM potassium phosphate buffer was added to each well in the NCF60 plate.
e. After the pre-incubation was finished, the NADPH regeneration system working solution was dispensed into the 96-well plate in an amount of 90 μL/well, and then added to each of the plates in an amount of 10 μL/well to start the reaction.
f. The plates were incubated for an appropriate time (e.g., 5, 10, 20, 30, or 60 minutes).
g. The stop solution (refrigerated at 4° C., containing 100 ng/mL Tolbutamide and 100 ng/mL Labetalol) was added to each sample well in an amount of 300 μL/well.
h. The sample plates were shaken well for about 10 minutes and centrifuged at 4,000 rpm for 20 minutes at 4° C. During the centrifugation, 300 μL of HPLC water was added to each well, and 100 μL of the supernatant was taken for LC-MS/MS analysis.
T1/2 and Clint(mic) were calculated by the following formula: […]
Each gram of liver contained 45 mg of microsome protein, and the liver weight was 20 g/kg in a human.
Ct was the concentration at time t, t was the incubation time, C0 was the concentration at time 0, Ke was an elimination rate constant, Clint(mic) was the intrinsic clearance in liver microsomes, and Clint(liver) was the intrinsic clearance in liver. CLint(mic)=0.693/half-life/mg of microsome protein per mL(concentration of microsomes during incubation) CLint(liver)=CLint(mic)×mg of microsome protein/g of liver weight×a ratio of liver weight to body weight 3.4 Test Results

[3] = molecular target: T1, human μ-subtype opioid receptor (hMOR); assay: MOR cAMP agonist activity test; format: cell-based; settings: for Emax: maximum effect of enkephalin DAMGO was 100%
Experimental: Test 1: MOR cAMP Agonist Activity Test
1.1 Experimental Purpose: To test the cAMP agonist activity of the compounds of the present disclosure on the human μ-subtype opioid receptor (hMOR).
a. Compound samples were dissolved in DMSO to a storage concentration of 10 mM.
as §1
c. The series of diluted samples were transferred to an experimental plate (Corning-3824) by using an Echo machine, wherein 30 nL was transferred corresponding to each well.
The experiment was performed using a cAMP detection kit from Cisbio (Cisbio #62AM4PEJ).
a. Assay buffer and stimulation buffer (STB) required for the experiment were formulated.
Stimulation Buffer: formulated with the assay buffer, containing 5 μM NKH477 (CAS: 138605-00-2) and 200 μM IBMX (3-isobutyl-1-methylxanthine)
b. […] The number of cells in the well was 10,000 cells/well.
c. The experimental plate was placed in a 37° C. constant-temperature incubator for incubation. The incubation was performed for 40 minutes.
d. A cAMP standard concentration curve was prepared. The first concentration point was at 2848 nM, and a total of sixteen detection concentrations were obtained by 4-fold gradient dilution. There were three replicates for each concentration point.
e. The cAMP detection kit from Cisbio was provided therein with a d2-labeled cAMP reagent (d2 reagent) and an Eu-labeled cAMP antibody reagent (Crypate reagent). The above two reagents were formulated according to the kit instructions, and then added to the sample experimental plate and to the cAMP standard concentration experimental plate, respectively. It was necessary to add 5 μL of the d2 reagent and then 5 μL of the Cryptate reagent to each well.
f. After the experimental plates were left at room temperature for 60 minutes, the experimental plates were read on the Envision.

[4] = Pharmacokinetics of the compounds in rats; format: in vivo, rat
Experimental: 6.1 Experimental Purpose: To measure, using a LC/MS/MS method, the medicament concentrations of the compound in plasma and specific tissues at different time points after the compound was administered by a single intravenous injection (IV) to 7-9-week-old male SD rats used as test animals, to study on the pharmacokinetic behavior of the compound of the present disclosure in rats, and to evaluate the pharmacokinetic characteristics thereof. 6.2 Compound Formulation
Each of them was formulated at a concentration of 1 mg/mL and was used for IV (intravenous injection) administration.
The actual weights of the rats were weighed on the day of administration and volumes to be administered were calculated. The above formulated solutions to be administered were administered by injection into caudal veins of rats.
About 0.2 mL of whole blood samples were collected by means of jugular vein puncture at the time set in the experimental protocol, and the actual blood collection time was recorded in the experimental records. All the blood samples were added to labeled plastic centrifuge tubes to which K2-EDTA anticoagulant was added in advance. After the blood samples were collected, they were centrifuged at 3,000 g for 10 minutes at 4° C. to prepare the supernatant plasma, and the plasma was stored at −20° C. or a lower temperature for LC-MS/MS analysis.
The concentrations of the compounds in rat plasma were measured by using high-performance liquid chromatography-tandem mass spectrometry (LC-MS/MS). The retention durations of the compounds and internal standard, chromatogram acquisition, and integration of chromatograms were processed using the software Analyst (Applied Biosystems), and data statistics were processed using the software Watson LIMS (Thermo Fisher Scientific) or Analyst (Applied Biosystems). The plasma concentration was processed using a non-compartmental model of WinNonlin™ Version 6.3 (Pharsight, Mountain View, Calif.) which was a pharmacokinetic software, and the pharmacokinetic parameters were calculated using a linear logarithmic trapezoidal method.

[5] = >30000 nM = greater than the highest detection concentration, read-out: MOR β-arrestin-2 EC50

Row | Compound | EC50 [1, 5] | Emax [1] | EC50 [3] | Emax [3] | further results
1 | COc1ccsc1CNCC[C@@]1(c2ccc(F)cc2)CCO[C@]2(CCOC2)C1 [(+)-3] | > 30000 nM | ~0% | 3 nM | 82% | CLint scaled [2]: 39 mL/min/kg
2 | Fc1ccc([C@]2(CCNCc3scc4c3CCC4)CCO[C@]3(CCOC3)C2)nc1 [(+)-5] | > 30000 nM | ~0% | – | 96.5% | Apparent Clearance Cl ([4]; male SD rats, single IV, mg/Kg: Comparative Compound 1 1.80, (+)-5 2.40, (+)-16 1.76, HCl salt of (+)-23 1.71): 58.9 mL/min/kg; Vd ([4]; male, SD, rat, plasma, iv, read-out: Apparent Distribution Volume Vd): 3.6 L/kg; AUC(0-inf) ([4]; male, SD, rat, plasma, iv, read-out: Area under the Curve AUC0-inf): 1.4 µM·h; half-life ([4]; male, SD, rat, plasma, iv, read-out: Hal-life T1/2 (converted)): 54 min; C0 ([4]; male, SD, rat, plasma, iv, read-out: Initial Concentration C0): 1810 nM; Brain/Plasm Ratio B/P ratio ([4]; rats, IV, sampling point […], mg/Kg: Comparative Compound 1 0.56, (+)-5 2.40, (+)-16 1.76, HCl salt of (+)-23 1.71): 2.19
3 | Fc1ccnc([C@]2(CCNCc3scc4c3CCC4)CCO[C@]3(CCOC3)C2)c1 [(+)-6] | > 30000 nM | ~0% | 1.8 nM | 86.5% | CLint scaled [2]: 86 mL/min/kg
4 | c1ccc([C@]2(CCNCc3scc4c3COC4)CCO[C@]3(CCOC3)C2)nc1 [(+)-7] | > 30000 nM | ~0% | 14.1 nM | 90.4% | –
5 | Cc1cc(C)cc(CNCC[C@@]2(c3ccccn3)CCO[C@]3(CCOC3)C2)c1 [(+)-10] | > 30000 nM | ~0% | 11.6 nM | 96.6% | –
6 | c1ccc([C@]2(CCNCc3cccc4c3CCCC4)CCO[C@]3(CCOC3)C2)nc1 [(+)-11] | > 30000 nM | ~0% | 1.4 nM | 87.2% | CLint scaled [2]: 72.5 mL/min/kg
7 | Cc1ccsc1CNCC[C@@]1(c2ccc(F)cc2)CCO[C@]2(CCOC2)C1 [(+)-13] | > 30000 nM | ~0% | 4.1 nM | 61.2% | –
8 | Fc1ccc([C@]2(CCNCc3cccs3)CCO[C@]3(CCOC3)C2)cc1 [(+)-14] | – | ~0% | – | – | –
9 | Fc1ccc([C@]2(CCNCc3ccc(Cl)cc3)CCO[C@]3(CCOC3)C2)nc1 [(+)-17] | > 30000 nM | ~0% | 8.9 nM | 78.5% | –
10 | c1ccc([C@]2(CCNCc3cccc4c3CCC4)CCO[C@]3(CCOC3)C2)nc1 [(+)-19] | > 30000 nM | ~0% | 4.5 nM | 69.9% | –
11 | Clc1ccc(CNCC[C@@]2(c3ccccn3)CCO[C@]3(CCOC3)C2)cc1Cl [(+)-20] | > 30000 nM | ~0% | 3.1 nM | 99.6% | –
12 | Clc1cc(Cl)cc(CNCC[C@@]2(c3ccccn3)CCO[C@]3(CCOC3)C2)c1 [(+)-21] | > 30000 nM | ~0% | 2.2 nM | 92.3% | –
13 | c1ccc([C@]2(CCN[C@H]3CCc4ccccc43)CCO[C@]3(CCOC3)C2)nc1 [(+)-25] | > 30000 nM | ~0% | – | 90% | –
14 | Fc1ccc([C@]2(CCN[C@H]3CCCc4ccccc43)CCO[C@]3(CCOC3)C2)nc1 [(+)-26] | > 30000 nM | ~0% | 0.2 nM | 96% | –
15 | c1ccc([C@]2(CCN[C@H]3CCCc4ccccc43)CCO[C@]3(CCOC3)C2)nc1 [(+)-27] | > 30000 nM | ~0% | 0.8 nM | 91% | –
16 | Fc1ccc([C@]2(CCNCc3scc4c3CCC4)CCO[C@]3(CCOC3)C2)cc1 [Formate Salt of (+)-4] | > 30000 nM | ~0% | 0.07 nM | – | –
17 | Fc1ccc([C@]2(CCNCc3scc4c3COC4)CCO[C@]3(CCOC3)C2)cc1 [Hydrochloride Salt of (+)-12] | > 30000 nM | ~0% | 6.8 nM | – | –
18 | Fc1ccc([C@]2(CCNCc3cc(Cl)cc(Cl)c3)CCO[C@]3(CCOC3)C2)nc1 [Hydrochloride Salt of (+)-24] | > 30000 nM | ~0% | 0.2 nM | 95% | –
19 | c1ccc([C@]2(CCNCc3cc4c(s3)CCC4)CCOC3(CCCC3)C2)nc1 [compound 2, reference compound] | – | 35.2% | – | 105% | EC50 [1]: 500 nM
